System: HUVECs
Assay: Syntenin-1 stimulation and inhibition in HUVECs (qRT-PCR)
Assay type: cell-based, human
Settings: Syntenin-1 1000 ng/ml, mTORi 1 μM, cMYCi 50 μM
Experimental: FIGS. 11A-J show Syntenin-1 reprogrammed endothelial cells display a robust inflammatory phenotype. Relative expression of Syntenin-1 (FIG. 11A) or SDC-1 (FIG. 11B) was determined by RNAseq (Lewis M J, et al. Cell reports. 2019; 28:2455-2470 e2455) in synovial tissue biopsies from RA non-responsive (Non-R)(ΔDAS28≤0.6, n=16-23) and moderate (ΔDAS28 1.2 & >0.6, n=21) and good responsive (ΔDAS28>1.2, n=35-50) patients. […] HUVECs were treated with PBS (ctrl) or Syntenin-1 (1000 ng/ml) for 6 h and transcription of IRFs (FIG. 11E), inflammatory mediators (FIG. 11F), TLRs (FIG. 11I), and pro-repair factors (FIG. 11J) were assessed by qRT-PCR (n=7-12). HUVECs were treated with PBS or Syntenin-1 (1000 ng/ml) in the presence or absence of SDC-1 Ab (SDCab; 1:100), IL-5R Ab (IL5Ra; 2 μg/ml), or PDZli (PDZ1; 10 μM) for 6 h before quantifying transcription levels of TNFα (FIG. 11G) and IL-1β (FIG. 11H), (5-7). Data are presented as mean±SEM; significant differences were determined by the Mann-Whitney test, 2way ANOVA, or one-way ANOVA. *p<0.05, **p<0.01, ***p<0.001, ****p<0.0001. […]
Syntenin-1 stimulation and inhibition. […] Cells were subsequently harvested in TRIzol reagent (Life Technologies) or RIPA buffer (Cell Signaling Technology) for mRNA quantification and western blot analysis; conditioned media was collected for ELISA.
Quantitative Real-Time PCR. […]

## CO[C@H]1C[C@@H]2CC[C@@H](C)[C@@](O)(O2)C(=O)C(=O)N2CCCC[C@H]2C(=O)O[C@H]([C@H](C)C[C@@H]2CC[C@@H](OCCO)[C@H](OC)C2)CC(=O)[C@H](C)/C=C(\C)[C@@H](O)[C@@H](OC)C(=O)[C@H](C)C[C@H](C)/C=C/C=C/C=C/1C [mTORi, Everolimus]
HIF1αi 2 μM, FIG. 13H
  TNF expression in Syntenin-1-reconfigured endothelial cells: diminished
FIG. 13E
  Syntenin-1-elevated HIF1α expression levels: dysregulated

Source: patent US20260184807A1, “Methods for Treating Rheumatoid Arthritis Using a Syndecan-1 Inhibitor or Syntenin-1 Inhibitor” (The United States Government as represented by the …, priority 2022, published 2026)
